Measurements from patent US7282512B2, “Cycloalkyl ketoamides derivatives useful as cathepsin K inhibitors” (SmithKline Beecham Corporation, priority 2002, dated 2007).

Columns and labels:
rat cathepsin K = molecular target: T1, rat cathepsin K (Rattus norvegicus, UniProt O35186); experiment: cathepsin K inhibition assay, fluorogenic substrate Cbz-Phe-Arg-AMC, progress curve method; type: biochemical; conditions: Table 2; rat recombinant enzyme, 10 μM substrate; read-out: rCat K Ki
T1 construct: The proform of cathepsin K was converted to mature cathepsin K by brief exposure to pH 4; made in house; host or cells: baculovirus; Trichoplusia ni High Five cells (virus raised in Sf-9)
T1 sequence (O35186 115-329): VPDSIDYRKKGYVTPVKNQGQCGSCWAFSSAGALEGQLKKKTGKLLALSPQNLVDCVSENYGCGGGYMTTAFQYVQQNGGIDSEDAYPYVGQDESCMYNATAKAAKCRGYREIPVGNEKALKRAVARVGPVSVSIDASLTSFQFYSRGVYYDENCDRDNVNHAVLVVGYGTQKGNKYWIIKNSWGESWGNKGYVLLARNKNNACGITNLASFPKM
Procedure: (§1) All assays for cathepsin K were carried out with human and rat recombinant enzyme. Assays for cathepsins S & V were also carried out with human recombinant enzyme. Assays for human cathepsins B, H, and L were carried out with enzyme, purchased from Athens Research and Technology, Inc., prepared from human liver tissue. Standard assay conditions for the determination of kinetic constants used a fluorogenic peptide substrate, typically (5S,8S)-13-amino-5-benzyl-13-imino-3-methylene-N-(4-methyl-2-oxo-2H-chromen-7-yl)-6-oxo-1-phenyl-2-oxa-4,7,12-triazatridecane-8-carboxamide (Cbz-Phe-Arg-AMC), and were determined in 100 mM sodium acetate at pH 5.5 containing 10 mM dithiothreitol and 120 mM sodium chloride. A stock substrate solution of Cbz-Phe-Arg-AMC was prepared at a concentration of 50 mM in dimethyl sulfoxide. This substrate was diluted into the assay for a final substrate concentration of 10 μM in the rat cathepsin K, human cathepsin K, and human cathepsin B assays; a final substrate concentration of 5 μM in the human cathepsin L assay; and a final substrate concentration of 2 μM in the human cathepsin V assay.
All assays contained 10% dimethyl sulfoxide. […] All assays were conducted at 30° C. Product fluorescence (excitation at 360 nm; emission at 440 nm, (except cathepsin H which used excitation at 340 nm; emission at 420 nm)) was monitored with a PerSeptive Biosystems Cytofluor II fluorescence plate reader. Product progress curves were generated over 2.3 h monitoring the formation of 7-amino-4-methylcoumarin product (or β-naphthalamide for cathepsin H). […]
Protein Purification: Media (human and rat) were filtered through a Whatman 3 filter, and then loaded onto a 25 mL Poros HS II (26 mm×47 mm) cation exchange column equilibrated in 25 mM sodium acetate at pH 5.5 (equilibration buffer). The column was washed until the absorbance reached the baseline value, and then the protein was eluted with a linear gradient from 0-2 M sodium chloride in the equilibration buffer. Column fractions were analyzed by SDS-PAGE, N-terminal sequencing, and mass spectrometry. […]

human cathepsin H = human cathepsin H (Homo sapiens, UniProt P09668); experiment: cathepsin H inhibition assay, substrate L-Arg-β-naphthalamide; type: biochemical; conditions: Table 2; enzyme from human liver tissue, 50 μM substrate; read-out: hCat H Ki
Procedure: as §1, with “assay. […]” for “assay.”
All assays contained 10% dimethyl sulfoxide. […] Product fluorescence (excitation at 360 nm; emission at 440 nm, (except cathepsin H which used excitation at 340 nm; emission at 420 nm)) was monitored with a PerSeptive Biosystems Cytofluor II fluorescence plate reader. […]
Potential inhibitors were evaluated using the progress curve method. […] For those compounds whose progress curves were linear, the enzymatic activity (RATE) was plotted against the concentration of test compound, including inhibitor concentration of zero ([I]=0), and the IC50 determined from a fit of equation 1 to the data, RATE=Vmax/(1+([I]/IC50)) (1) where Vmax is the best fit estimate of the maximal enzymatic activity. Ki values were calculated from IC50 values using equation 2 assuming a competitive model.

Sequence of human cathepsin H (P09668 116-335 limits assumed, other chains not shown): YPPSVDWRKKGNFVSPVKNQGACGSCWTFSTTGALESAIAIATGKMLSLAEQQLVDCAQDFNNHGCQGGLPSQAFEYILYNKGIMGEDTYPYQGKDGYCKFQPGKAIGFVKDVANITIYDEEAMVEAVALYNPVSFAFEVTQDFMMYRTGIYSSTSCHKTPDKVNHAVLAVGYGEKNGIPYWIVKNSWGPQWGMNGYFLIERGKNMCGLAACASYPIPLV

Ki (rat cathepsin K) [nM] | Ki (human cathepsin H) [nM] | Compound
10 to 100 | > 1000 | CCCC[C@H](NC(=O)OC1(c2nc3ccccc3s2)CCCC1)C(=O)C(=O)Nc1ccn[nH]1 [Example 17, 1-(1,3-Benzothiazol-2-yl)cyclopentyl(1S)-1-[oxo(1H-pyrazol-3-ylamino)acetyl]pentylcarbamate]
> 1000 | > 1000 | CCCC[C@H](NC(=O)OC1(Cc2ccccc2)CCCC1)C(=O)C(=O)N[C@@H](C)C(=O)OCc1ccccc1 [Example 3, Benzyl (2S)-2-{[(3S)-3-({[(1-benzylcyclopentyl)oxy]carbonyl}amino)-2-oxoheptanoyl]amino}propanoate]
10 to 100 | 100 to 1000 | CCCC[C@H](NC(=O)OCC1(Cc2ccc(F)cc2)CCC1)C(=O)C(=O)Nc1n[nH]c2cc(Cl)ccc12 [Example 15, [1-(4-fluorobenzyl)cyclobutyl]methyl(1S)-1-[[(6-chloro-1H-indazol-3-yl)amino](oxo)acetyl]pentylcarbamate]
